US11129807B2, “Methods of treating schizophrenia” (Sunovion Pharmaceuticals Inc., priority 2017, dated 2021)

Tests used:
[1] = test system: Pre-pulse Inhibition (PPI) in Mice; assay: Pre-pulse inhibition (PPI) of startle in mice;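 also: plus grades count prepulse intensities with significant PPI increase at P below 0.05 and minus means no change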; type: in vivo; details: 30 min prior to PPI test, male C57Bl/6J mice, vs. vehicle
Method: (§1) Anti-psychotic like activity of the compounds was evaluated in mice using the PCP hyperactivity and Pre-Pulse Inhibition (PPI) models of schizophrenia.
(§2) Methods: Animals: Male C57Bl/6J mice from Jackson Laboratories (Bar Harbor, Me.) were used. Upon receipt, mice were assigned unique identification numbers (tail marked) and were group housed with 4 mice per cage in OptiMICE ventilated cages. All animals remained housed in groups of four during the remainder of the study. All mice were acclimated to the colony room for at least two weeks prior to testing. During the period of acclimation, mice were examined on a regular basis, handled, and weighed to assure adequate health and suitability. Animals were maintained on a 12/12 light/dark cycle. The room temperature was maintained between 20 and 23° C. with a relative humidity maintained between 30% and 70%. Chow and water were provided ad libitum for the duration of the study. In each test, animals were randomly assigned across treatment groups.
Prepulse Inhibition of Startle: The acoustic startle is an unconditioned reflex response to an external auditory stimulus. Prepulse inhibition of startle (PPI) refers to the reduction in the startle response caused by the presentation of a low-intensity auditory stimulus prior to the startle stimulus. The PPI paradigm is used for the study of schizophrenia and antipsychotic action due to the similarities between the results from human and rodent studies. […] Various psychotomimetic drugs such as PCP can disrupt PPI. In mice, antipsychotic drugs such as clozapine can reverse the disruption of PPI induced by PCP.
Mice were placed in the PPI chambers (Med Associates) for a 5 min session of white noise (70 dB) habituation. After the habituation period the test session was initiated. The session started with a habituation block of 6 presentations of the startle stimulus alone, followed by 10 PPI blocks, each of which consisted of 6 different types of trials. Trial types were: ‘null’ (no stimuli), ‘startle’ (120 dB), ‘startle plus prepulse’ (4, 8 and 12 dB over background noise, i.e., 74, 78 or 82 dB) and ‘prepulse’ (82 dB). Trial types were presented in a random order within each block. Each trial started with a 50 ms stimulus-free period during which baseline movements were recorded. This was followed by a subsequent 20 ms period during which the prepulse stimulus was presented and responses to the prepulse measured. After a further 100 ms period, the startle stimulus was presented for 40 ms and responses recorded for 100 ms from startle onset. Responses were sampled every ms. The inter-trial interval was variable with an average of 15 s (range from 10 to 20 s). In ‘startle’ trials the basic auditory startle response was measured. The basic startle response was calculated as the mean startle response of all ‘startle’ trials (i.e., excluding the first habituation block). In ‘startle plus prepulse’ trials the degree of inhibition of the normal startle was calculated and expressed as a percentage of the basic startle response.
Mice were treated with vehicle, haloperidol (1 mg/kg; i.p) or test compound 30 min prior to PPI test. The PPI enclosures were cleaned following each test.

[2] = test system: PCP-Induced Hyperactivity Responses in Mice; assay: PCP-induced hyperactivity (open field) in mice;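 also: plus means significant inhibition of PCP hyperactivity at P below 0.05 and minus means none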; type: in vivo; details: male C57Bl/6J mice, vs. vehicle + PCP
Method: as §1, §2
The analysis was configured to divide the open field into a center and periphery zone. Distance traveled was measured from horizontal beam breaks as the mouse moved whereas rearing activity was measured from vertical beam breaks.
Mice were injected with vehicle, test compound, or clozapine (1 mg/kg; i.p) and placed in the OF chambers for 30 min measurement of baseline activity. Mice were then injected with either water or PCP (5 mg/kg; i.p) and placed back in the OF chambers for a 60-minute session. At the end of each OF test session the OF chambers were thoroughly cleaned.

[3] = 10 mg/kg Compound + PCP (5 mg/kg; i.p)
[4] = 30 mg/kg Compound + PCP (5 mg/kg; i.p)
[5] = 100 mg/kg Compound + PCP (5 mg/kg; i.p)
[6] = 0.3 mg/kg Compound + PCP (5 mg/kg; i.p)
[7] = 1 mg/kg Compound + PCP (5 mg/kg; i.p)
[8] = 3 mg/kg Compound + PCP (5 mg/kg; i.p)

Row | SMILES | Effect on Pre-pulse Inhibition (PPI) ([1]; 10 mg/kg) | Effect on Pre-pulse Inhibition (PPI) ([1]; 30 mg/kg) | Effect on Pre-pulse Inhibition (PPI) ([1]; 100 mg/kg) | Total Distance Traveled (cm) [2, 3] | Total Distance Traveled (cm) [2, 4] | Total Distance Traveled (cm) [2, 5] | Effect on Pre-pulse Inhibition (PPI) ([1]; 3 mg/kg) | Total Distance Traveled (cm) [2, 6] | Total Distance Traveled (cm) [2, 7] | Total Distance Traveled (cm) [2, 8]
1 | CCc1cc2c(s1)CCO[C@H]2CNC [Compound 75] | − | − | − | + | − | + |  |  |  | 
2 | CCc1cc2c(s1)CCO[C@@H]2CNC [Compound 76] | − | − | − | − | − | + |  |  |  | 
3 | CNCC1OCCc2scc(C)c21 (stereo not drawn) [Compound 78] | − | − | − | + | + | + |  |  |  | 
4 | c1cc2c(s1)CCO[C@H]2[C@H]1CCCN1 [Compound 102] | − | − |  | + | + |  | − | − | + | +
5 | c1cc2c(s1)CCO[C@@H]2[C@@H]1CCCN1 [Compound 119] |  |  |  | + | + | + |  |  |  | 
6 | NC[C@@H]1OCCc2ccsc21 [Compound 127] | − | +++ |  | + | − |  | +++ | − | − | +
7 | CNC[C@@H]1OCCc2scc(C)c21 [Compound 130] | − | − |  | + | + | + | − | − | − | +
8 | CNC[C@H]1OCCc2scc(C)c21 [Compound 131] | − | − |  |  |  |  | − | − | + | +
9 | CNCC1OCCc2c(C)csc21 (stereo not drawn) [Compound 140] | − | − | − | − | − | + |  |  |  | 
10 | [2H]C([2H])([2H])NC[C@H]1OCCc2sccc21 [Compound 158] | − | − | +++ | + | + | + | − |  | + | +
11 | Cc1csc2c1CCO[C@@H]2CN [Compound 170] | +++ | +++ |  | − | − |  | − | − | − | −
12 | CNC[C@@H]1OCCc2c(C)csc21 [Compound 171] | − | − | +++ | − | + |  | − | − | − | −
